Test results taken from patent US20250129370A1, “METHOD FOR REDUCING HEPATIC TRIGLYCERIDES” (ADAERATA, LIMITED PARTNERSHIP, priority 2022, published 2025).

Legend:
[1] = system: 3′-UTR of human PCSK7 mRNAs; assay: Dual-luciferase reporter assay, wild-type PCSK7 3′-UTR, HEK293T cells; format: cell-based; details: wild-type PCSK7 3′-UTR psiCHECK-2, HEK293T
Source text: The interactions between the miRNAs and their probable targets on PCSK7 were explored by cloning the potential target regions in psiCHECK-2™ (Promega, USA), a luciferase reporter vector. In psiCHECK-2™, hRluc, the Renilla luciferase gene, is located upstream of the target regions of interest cloned into the psiCHECK-2™ vector downstream of the Renilla gene. The region corresponding to the 3′-UTR of PCSK7 (926-nt sequences in length) that constituted the predicted miRNA response elements was PCR-amplified and cloned downstream of the Renilla luciferase gene in the psiCHECK-2™ vector (Promega, USA). […]
The HEK293T cells were co-transfected through the application of the wild-type psiCHECK-2, the wild-type PCSK7 3′-UTR, the mutant PCSK7 3′-UTR, and the miR-overexpressing vectors so that the direct interactions of the nominated miRNAs with PCSK7 3′-UTR could be investigated. […] Transfection efficiency was monitored by fluorescent microscopy (Nikon TE2000S, Japan) 36 hours following the procedure.
The PsiCHECK-2 reporter construct plasmid contained the Renilla luciferase gene upstream of PCSK7 3′-UTR and an independent firefly luciferase gene as an internal control for normalization. […] Then, LARII Reagent was added, and after 20 minutes, the firefly luciferase activity was measured as a control. Afterward, Renilla activity was determined using Stop & Glo Reagent. […]

[2] = system: human PC7; assay: Western blot of overexpressed PC7 protein in Huh7 cells co-transfected with miRNA vectors; format: cell-based
Method: In the next step, the effect of miR-125a-5p on PC7 function was determined. First, the miR-125a-5p-overexpressing vector and its related mock plasmids were co-transfected with the pIRES vector (Invitrogen, USA), containing the full length of cDNA encoding the PCSK7 mRNA with the complete 3′-UTR in Huh7 cells. The western blot analysis was performed 48 hours after transfection. Thereafter, the impact of miR-125a-5p on the enzymatic function of PC7 was assessed by co-transfecting Huh7 cells with the miR-125a-5p-overexpressing vector, with that coding for the full length of PCSK7, and a plasmid encoding hTfR1 (Guillemot et al., 2013; Durand et al., 2020). […]
(§1) Subsequently, proteins were isolated with an ice-cold RIPA buffer (1×), comprising 50 mM of Tris hydrochloride (pH 8), 150 mM of sodium chloride, 0.1% sodium dodecyl sulfate, 1% Nonidet P40, 0.25% sodium deoxycholate, and a cocktail of protease inhibitors (Roche, Oakville, ON, Canada). […] Both PC7 and TfR1 were C-terminally tagged with V5 and detected with a V5-monoclonal antibody (Invitrogen) and membranes were incubated with appropriate primary and secondary antibodies, as reported (Guillemot et al., 2013). Subsequently, immunoreactive bands (the signal) were visualized with an enhanced chemiluminescent reaction kit (Bio-Rad, USA) and recorded via chemiluminescence. […]

[3] = system: hTfR1; assay: Western blot of hTfR1 protein in Huh7 cells co-transfected with miR-125a-5p vector; format: cell-based, human
Source text: FIGS. 31A-B. Western blot (FIG. 31A) and quantitative (FIG. 31B) analysis of the cellular expression of human TfR1 after the co-transfection of the miR-125a-5p and TfR1-overexpressing vectors in Huh7 cells. No direct effect by miR-125a-5p on TfR1 expression was observed. Here miR-125a-5p was overexpressed at different plasmid DNA ratios of PCSK7: miRNA: 1:2 (2×), 1:3 (3×), and 1:5 (5×). X stands for vector DNA fold for miR-125-5p compared to vector expressing PC7.
In the next step, the effect of miR-125a-5p on PC7 function was determined. […] Thereafter, the impact of miR-125a-5p on the enzymatic function of PC7 was assessed by co-transfecting Huh7 cells with the miR-125a-5p-overexpressing vector, with that coding for the full length of PCSK7, and a plasmid encoding hTfR1 (Guillemot et al., 2013; Durand et al., 2020). […]
as §1, with “2013).” for “2013). Subsequently, immunoreactive bands (the signal) were visualized with an enhanced chemiluminescent reaction kit (Bio-Rad, USA) and recorded via chemiluminescence.”

## miR-125a-5p: miRNA targeting PCSK7 3′-UTR and exons 14 and 15, overexpressed from pEGFP-C1 precursor vector (UCCCUGAGACCCUUUAACCUGUGA; miRNA expressed from a pEGFP-C1 precursor vector, further chemistry not given here)
[1]
  reduction of relative luciferase activity: ~50%
[2]; Huh7, 48 hours post-transfection, vs mock (pEGFP-C1) and miR-224-5p controls
  fall of overexpressed PC7 protein levels: ~80%
[2]; Huh7, PC7:miR-125a-5p DNA ratios 1:2, 1:3 and 1:5, all three ratios
  decrease of PC7 protein levels: > 80%
[3]
  expression level of the hTfR1 protein: exerted no effect
